Reference: patent US20020103398A1, “2-Amino-2-alky-4 heptenoic and heptynoic acid derivatives useful as nitric oxide synthase inhibitors” (priority 2000, published 2002)
Counter-ions that a name gives are not always drawn.

How the values were obtained:
Assay type in all cases: biochemical
[1] = molecular target: T1, human neuronal constitutive NOS (hncNOS) (Homo sapiens, UniProt P29475); experiment: Citrulline assay for nitric oxide synthase (hncNOS); conditions: recombinant enzyme from Sf9 cells; 30 μM L-arginine; calmodulin 40-100 nM; 37° C., 15 minutes
T1 construct: made in house; host or cells: Sf9 insect cells, baculovirus vector
T1 sequence (P29475 whole entry): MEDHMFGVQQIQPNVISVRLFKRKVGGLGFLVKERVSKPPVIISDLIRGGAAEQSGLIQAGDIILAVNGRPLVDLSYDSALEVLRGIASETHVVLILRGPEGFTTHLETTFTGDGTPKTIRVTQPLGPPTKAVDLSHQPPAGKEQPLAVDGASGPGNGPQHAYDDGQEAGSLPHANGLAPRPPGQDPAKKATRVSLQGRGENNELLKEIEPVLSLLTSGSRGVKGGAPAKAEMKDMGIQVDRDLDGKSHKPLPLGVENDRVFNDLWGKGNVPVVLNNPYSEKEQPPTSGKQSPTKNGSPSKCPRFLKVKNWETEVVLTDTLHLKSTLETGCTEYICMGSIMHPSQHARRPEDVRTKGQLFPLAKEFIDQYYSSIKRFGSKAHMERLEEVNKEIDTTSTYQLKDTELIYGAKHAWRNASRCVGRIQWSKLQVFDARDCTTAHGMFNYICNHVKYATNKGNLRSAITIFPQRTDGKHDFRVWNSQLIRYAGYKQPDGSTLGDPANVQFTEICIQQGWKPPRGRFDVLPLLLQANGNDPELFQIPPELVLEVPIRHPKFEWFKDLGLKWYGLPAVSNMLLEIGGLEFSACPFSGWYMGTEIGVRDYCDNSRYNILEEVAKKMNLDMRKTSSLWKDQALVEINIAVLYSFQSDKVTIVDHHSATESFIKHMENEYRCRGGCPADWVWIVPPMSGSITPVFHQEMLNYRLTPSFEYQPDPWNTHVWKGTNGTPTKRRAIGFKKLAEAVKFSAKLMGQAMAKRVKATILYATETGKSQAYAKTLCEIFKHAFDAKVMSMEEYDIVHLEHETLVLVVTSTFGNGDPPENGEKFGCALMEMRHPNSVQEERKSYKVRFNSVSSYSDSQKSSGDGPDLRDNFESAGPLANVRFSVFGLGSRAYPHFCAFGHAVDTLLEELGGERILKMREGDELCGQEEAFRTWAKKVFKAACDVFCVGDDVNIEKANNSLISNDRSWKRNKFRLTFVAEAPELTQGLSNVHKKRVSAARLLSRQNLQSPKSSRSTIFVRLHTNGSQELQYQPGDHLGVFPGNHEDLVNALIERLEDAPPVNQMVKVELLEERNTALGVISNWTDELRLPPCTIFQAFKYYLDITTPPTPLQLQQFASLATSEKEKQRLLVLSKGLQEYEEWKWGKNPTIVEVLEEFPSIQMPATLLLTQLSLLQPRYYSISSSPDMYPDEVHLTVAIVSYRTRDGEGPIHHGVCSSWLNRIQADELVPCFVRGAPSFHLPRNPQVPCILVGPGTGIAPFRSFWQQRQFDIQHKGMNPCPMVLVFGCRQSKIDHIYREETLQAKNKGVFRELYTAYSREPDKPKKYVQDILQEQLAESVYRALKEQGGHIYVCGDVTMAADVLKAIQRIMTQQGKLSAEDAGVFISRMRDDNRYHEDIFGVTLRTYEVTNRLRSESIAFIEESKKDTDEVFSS
Text: (§1) Nitric oxide synthase (NOS) activity can be measured by monitoring the conversion of L-[2,3-^3H]-arginine to L-[2,3-^3H]-citrulline (Bredt and Snyder, Proc. Natl. Acad. Sci. U.S.A., 87, 682-685, 1990 and Moore et al, J. Med. Chem. 39, 669-672, 1996). Human inducible NOS (hiNOS), human endothelial constitutive NOS (hecNOS) and human neuronal constitutive NOS (hncNOS) are each cloned from RNA extracted from human tissue. The cDNA for human inducible NOS (hiNOS) is isolated from a λcDNA library made from RNA extracted from a colon sample from a patient with ulcerative colitis. The cDNA for human endothelial constitutive NOS (hecNOS) is isolated from a λcDNA library made from RNA extracted from human umbilical vein endothelial cells (HUVEC) and the cDNA for human neuronal constitutive NOS (hncNOS) is isolated from a λcDNA library made from RNA extracted from human cerebellum obtained from a cadaver. […] After mixing the resin is allowed to settle and L-[2,3-^3H]-Citrulline formation is determined by counting aliquots of the supernatant with a liquid scintillation counter. IC50 values can be determined by testing each compound at several concentrations. […]

[2] = molecular target: T2, human endothelial constitutive NOS (hecNOS) (Homo sapiens, UniProt P29474); experiment: Citrulline assay for nitric oxide synthase (hecNOS); conditions: recombinant enzyme from Sf9 cells; 30 μM L-arginine; calmodulin 40-100 nM; 37° C., 15 minutes
T2 construct: made in house; host or cells: Sf9 insect cells, baculovirus vector
T2 sequence (P29474 2-1203): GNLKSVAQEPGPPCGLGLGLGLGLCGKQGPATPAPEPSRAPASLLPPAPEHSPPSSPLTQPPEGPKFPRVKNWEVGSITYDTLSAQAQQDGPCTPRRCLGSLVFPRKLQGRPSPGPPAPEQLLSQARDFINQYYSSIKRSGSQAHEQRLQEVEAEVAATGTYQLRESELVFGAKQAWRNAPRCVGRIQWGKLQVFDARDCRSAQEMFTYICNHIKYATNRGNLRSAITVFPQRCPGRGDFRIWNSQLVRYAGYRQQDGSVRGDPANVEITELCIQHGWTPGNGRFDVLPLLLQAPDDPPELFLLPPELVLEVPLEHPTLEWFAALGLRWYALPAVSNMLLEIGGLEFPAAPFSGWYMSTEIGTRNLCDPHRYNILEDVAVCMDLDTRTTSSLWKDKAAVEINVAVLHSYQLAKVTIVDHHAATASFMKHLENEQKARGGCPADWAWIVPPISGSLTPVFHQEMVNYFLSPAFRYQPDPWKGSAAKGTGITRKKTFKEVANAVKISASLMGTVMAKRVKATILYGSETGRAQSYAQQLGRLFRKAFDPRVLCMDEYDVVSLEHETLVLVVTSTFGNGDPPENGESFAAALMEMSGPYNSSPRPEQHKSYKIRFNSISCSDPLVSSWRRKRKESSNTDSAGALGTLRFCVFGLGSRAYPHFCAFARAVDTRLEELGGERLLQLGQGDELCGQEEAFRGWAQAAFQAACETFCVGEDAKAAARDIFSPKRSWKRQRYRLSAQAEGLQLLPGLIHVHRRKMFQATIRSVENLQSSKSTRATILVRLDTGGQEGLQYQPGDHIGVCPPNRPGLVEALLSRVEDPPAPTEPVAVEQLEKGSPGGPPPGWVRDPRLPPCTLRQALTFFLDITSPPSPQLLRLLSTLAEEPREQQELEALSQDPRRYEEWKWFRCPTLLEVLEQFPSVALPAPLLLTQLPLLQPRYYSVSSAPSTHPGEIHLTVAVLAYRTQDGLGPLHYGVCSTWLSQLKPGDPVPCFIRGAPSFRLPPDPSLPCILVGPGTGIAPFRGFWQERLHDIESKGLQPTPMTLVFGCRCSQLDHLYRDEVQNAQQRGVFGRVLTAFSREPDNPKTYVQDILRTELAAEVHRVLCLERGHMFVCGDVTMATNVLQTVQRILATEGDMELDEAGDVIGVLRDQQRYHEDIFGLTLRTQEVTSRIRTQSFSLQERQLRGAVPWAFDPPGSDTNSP
Text: as §1

[3] = molecular target: T3, Human inducible NOS (hiNOS) (Homo sapiens, UniProt P35228); experiment: Citrulline assay for nitric oxide synthase (hiNOS); conditions: recombinant enzyme from Sf9 cells; 30 μM L-arginine; 37° C., 15 minutes
T3 construct: made in house; host or cells: Sf9 insect cells, baculovirus vector
T3 sequence (P35228 whole entry): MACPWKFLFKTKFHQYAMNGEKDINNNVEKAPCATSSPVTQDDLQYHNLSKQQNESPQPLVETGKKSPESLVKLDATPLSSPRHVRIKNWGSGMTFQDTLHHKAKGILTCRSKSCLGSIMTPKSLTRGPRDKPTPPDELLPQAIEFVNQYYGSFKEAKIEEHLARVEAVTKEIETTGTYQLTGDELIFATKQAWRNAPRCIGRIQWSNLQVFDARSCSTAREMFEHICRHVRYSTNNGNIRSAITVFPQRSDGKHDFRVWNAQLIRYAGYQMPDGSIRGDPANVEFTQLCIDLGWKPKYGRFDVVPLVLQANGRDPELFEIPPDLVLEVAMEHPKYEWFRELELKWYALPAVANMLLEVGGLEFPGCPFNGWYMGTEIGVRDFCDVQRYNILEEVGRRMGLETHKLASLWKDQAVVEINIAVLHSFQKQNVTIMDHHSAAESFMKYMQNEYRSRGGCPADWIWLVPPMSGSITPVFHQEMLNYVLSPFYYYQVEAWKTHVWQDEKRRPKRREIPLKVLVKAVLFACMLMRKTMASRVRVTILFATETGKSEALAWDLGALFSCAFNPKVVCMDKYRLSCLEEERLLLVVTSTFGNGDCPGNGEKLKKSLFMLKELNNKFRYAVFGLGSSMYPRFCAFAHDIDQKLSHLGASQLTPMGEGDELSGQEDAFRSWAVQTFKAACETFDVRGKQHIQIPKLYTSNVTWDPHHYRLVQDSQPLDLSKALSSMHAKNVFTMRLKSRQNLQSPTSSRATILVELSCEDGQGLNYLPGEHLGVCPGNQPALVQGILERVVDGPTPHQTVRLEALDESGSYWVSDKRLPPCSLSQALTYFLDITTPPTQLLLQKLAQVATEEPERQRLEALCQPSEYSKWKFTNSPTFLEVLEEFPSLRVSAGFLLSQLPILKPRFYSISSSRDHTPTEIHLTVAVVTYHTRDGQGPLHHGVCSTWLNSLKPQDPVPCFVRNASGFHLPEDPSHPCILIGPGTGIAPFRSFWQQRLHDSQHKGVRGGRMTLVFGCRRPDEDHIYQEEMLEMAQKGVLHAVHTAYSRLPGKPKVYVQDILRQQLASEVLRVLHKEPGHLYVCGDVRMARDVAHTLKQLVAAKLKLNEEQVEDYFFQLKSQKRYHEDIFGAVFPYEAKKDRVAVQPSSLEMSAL
Text: as §1

CC(=N)NCC/C=C\CC(C)(N)C(=O)O (racemic) [Example 1, (2R/S,4Z)-2-amino-2-methyl-7-[(1-iminoethyl)amino]-4-heptenoic Acid, Dihydrochloride]
IC50 [1]: 122 µM
IC50 [2]: 386 µM
IC50 [3]: 34 µM
